Among the data in ChEMBL document CHEMBL1158224, “Bioactive ent-kaurene diterpenoids from Annona senegalensis” (J Nat Prod, 1996) are EC50 and LC50 values, retold here.

For one series, the system named is MCF7. Briefly: Cytotoxicity against human MCF7 cells after 7 days by MTT assay. The following applies: MCF7, 168 h, read-out: ED50 (the source's name). The series is classed as functional. (In general: Tetrazolium assays rely on reduction of a dye to a coloured formazan, in cell work by metabolically active cells.)
A further series concerns PC-3. Briefly: Cytotoxicity against human PC3 cells after 7 days by MTT assay. The series is classed as functional. Conditions: PC-3, 168 h, read-out: ED50 (the source's name).
Another series has as its system MIA PaCa-2. Briefly: Cytotoxicity against human MIAPaCa2 cells after 7 days by MTT assay. Type of series: functional. Conditions: MIA PaCa-2, 168 h, read-out: ED50 (the source's name).
The next series has as its system A549. The series is described as follows: Cytotoxicity against human A549 cells after 7 days by MTT assay. The series is classed as functional. Conditions: A549, 168 h, read-out: ED50 (the source's name).
A short description of series [1]: Toxicity against brine shrimp. The series is classed as organism-based. Conditions: artemia, in vivo.
Another series deals with A498. The series is described as follows: Cytotoxicity against human A498 cells after 7 days by MTT assay. Type of series: functional. Conditions: A498, 168 h, read-out: ED50 (the source's name).
Another series has as its system HT-29. Briefly: Cytotoxicity against human HT29 cells after 7 days by MTT assay. Type of series: functional. The following applies: HT-29, 168 h, read-out: ED50 (the source's name).

SMILES strings stand for the structures. ≈ marks a conversion by molar mass, not a printed value.

Usually LC50 stands for the concentration that kills 50% of the test population. For `C=C1C[C@@]23CC[C@H]4[C@@](C)(CCC[C@@]4(C)C(=O)O)[C@@H]2CC[C@@H]1C3` [KAURENOIC ACID], the EC50 with MCF7 came out at 1 µg/mL (≈ 3.31 µM); with PC-3 it was 15.2 µg/mL (≈ 50.2 µM); in the series with MIA PaCa-2, 22.1 µg/mL (≈ 73.2 µM); in the series with A549, 13.6 µg/mL (≈ 44.9 µM); in the series with A498, 48 µg/mL (≈ 159 µM); with HT-29, 31.4 µg/mL (≈ 104 µM). For the same molecule, the LC50 in series [1] turned out to be 16 µg/mL (≈ 52.9 µM).
As to `COC(=O)[C@]1(C)CCC[C@@]2(C)[C@H]3CC[C@@H]4C[C@@]3(CC[C@@H]21)C[C@@H]4C(=O)O`, the EC50 in the series with MCF7 is > 20 µg/mL; in the series with PC-3, 17.4 µg/mL (≈ 49.9 µM).
Consider `COc1cccc2c1C(=O)c1c(O)c3c(c(O)c1C2=O)C[C@@](O)(C(=O)CO)C[C@@H]3O[C@H]1C[C@H](N)[C@H](O)[C@H](C)O1` [DOXORUBICIN], for which the EC50 with MCF7 was found to be 0.152 µg/mL (≈ 0.28 µM); with PC-3, 0.0223 µg/mL (≈ 0.041 µM); in the series with MIA PaCa-2, 0.00379 µg/mL (≈ 0.00697 µM); in the series on A549 it was 0.00506 µg/mL (≈ 0.00931 µM); with A498, 0.01 µg/mL (≈ 0.0184 µM); in the series on HT-29, 0.0437 µg/mL (≈ 0.0804 µM).
For the molecule `CC(=O)OC[C@@]1(OC(C)=O)C[C@@]23CC[C@H]4[C@@](C)(CCC[C@@]4(C)C(=O)O)[C@H]2CC[C@@H]1C3`, the EC50 with MCF7 is > 20 µg/mL; in the series with PC-3 it was 17.7 µg/mL (≈ 42.1 µM).
